Laboratory results as given in PMC7897990, “TriTOX: A novel Trichomonas vaginalis assay platform for high-throughput screening of compound libraries” (International Journal for Parasitology: Drugs and Drug …, 2021).
Counter-ions that a name gives are not always drawn. Like-named read-outs stand apart in the source and are kept apart here.

Tests used:
[1] = test system: nontumorigenic neonatal foreskin fibroblast (NFF) cell line
[2] = test system: Trichomonas vaginalis G3 trophozoites; assay: microbe, parasite or virus in culture; settings: 48 h
[3] = NFF fibroblast screen at 5 µg/mL, A = active, I = inactive
[4] = read-out: T.vaginalis_%inb_Rep1
[5] = read-out: T.vaginalis_%inb_Rep2
[6] = NFF fibroblasts, single concentration 5 µg/mL

SMILES | NFF_Activity [1, 3] | inhibition of growth at 1 µg/mL [2, 4] | inhibition of growth at 1 µg/mL [2, 5] | NFF_Activity [1] | NFF_Activity [1, 6]
C=C[C@]1(C)C[C@@H](OC(=O)CSCCN(CC)CC)[C@]2(C)[C@H](C)CC[C@]3(CCC(=O)[C@H]32)[C@@H](C)[C@@H]1O [Tiamulin] | I (otherwise these were reported as inactive (I)) | 12.6% | 13.9% |  | 
CN[C@H](CC(C)C)C(=O)N[C@H]1C(=O)N[C@@H](CC(N)=O)C(=O)N[C@H]2C(=O)N[C@H]3C(=O)N[C@H](C(=O)N[C@H](C(=O)O)c4cc(O)cc(O)c4-c4cc3ccc4O)[C@H](O)c3ccc(c(Cl)c3)Oc3cc2cc(c3O[C@@H]2O[C@H](CO)[C@@H](O)[C@H](O)[C@H]2O[C@H]2C[C@](C)(N)[C@H](O)[C@H](C)O2)Oc2ccc(cc2Cl)[C@H]1O [Vancomycin hydrochloride] |  | 1.36% | 5.42% | I (key: active (A) compounds having >25% inhibitory activity; otherwise these were reported as inactive (I)) | 
CC1(C)C=Cc2cc3ccc(=O)oc3cc2O1 [Xanthyletin] | I (otherwise these were reported as inactive (I)) | 12% | 15.5% |  | 
C=C1C[C@@]23C=CC(=O)[C@@](C)(CCC(=O)Nc4c(O)ccc(C(=O)O)c4O)[C@@H]2C[C@@H]1CC3 [Platencin] |  | 11.3% | 10.7% |  | I (otherwise these were reported as inactive (I))
O=C(c1cc(Cl)c(Cl)[nH]1)c1c(O)cccc1O [Pyoluteorin] |  | 6.82% | 7.19% |  | I (otherwise these were reported as inactive (I))
CO[C@@]12[C@H](COC(N)=O)C3=C(C(=O)C(C)=C(N)C3=O)N1C[C@@H]1N[C@@H]12 [Mitomycin C] |  | 11.5% | 3.72% |  | I (otherwise these were reported as inactive (I))
CC[C@H]1OC(=O)C[C@@H](O)[C@H](C)[C@@H](O[C@@H]2O[C@H](C)[C@@H](O)[C@H](N(C)C)[C@H]2O)[C@@H](CCN2C[C@H](C)C[C@H](C)C2)C[C@@H](C)C(=O)/C=C/C(C)=C/[C@@H]1CO[C@@H]1O[C@H](C)[C@@H](O)[C@@H](OC)[C@H]1OC [Tilmicosin] | I (otherwise these were reported as inactive (I)) | 2.41% | 4.94% |  | 
C=C[C@]1(C)C[C@@H](OC(=O)CO)[C@]2(C)[C@H](C)CC[C@]3(CCC(=O)[C@H]32)[C@@H](C)[C@@H]1O [Pleuromutilin] |  | 10.1% | 11.7% |  | I (otherwise these were reported as inactive (I))
C=C(NC(=O)c1csc(-c2nc3c(cc2O)-c2nc(cs2)C(=O)NC(C(C)O)C(=O)N/C(=C\C)c2nc(cs2)C(=O)NC2CC(O)C(=O)OCc4cccc5[nH]c(c(C)c45)C(=O)SCC(NC(=O)c4csc2n4)c2nc-3cs2)n1)C(N)=O (stereo not drawn) [Nosiheptide] |  | 2.89% | 6.03% |  | I (otherwise these were reported as inactive (I))
COc1ccc2c3c4n(c2c1)[C@H](C=C(C)C)OOC(C)(C)C[C@@H]4N1C(=O)[C@@H]2CCCN2C(=O)[C@]1(O)[C@H]3O [Verruculogen] | I (otherwise these were reported as inactive (I)) | 10.3% | 10.6% |  | 
C=C(C)[C@@H]1NC(=O)[C@@H](NC)[C@@H](O)c2cc(Cl)c(O)c(c2)O[C@](C)(CC)[C@@H](C(=O)N2CC=C[C@H]2C(=O)N/C(C(=O)N/C(=C/C(=O)O)C(=O)O)=C(\C)CC)NC1=O [Phomopsin A] |  | 11.7% | 11% |  | I (otherwise these were reported as inactive (I))
CC(C)=C[C@H]1C[C@H](C)[C@]2(CC[C@]3(C)C[C@H]4[C@H](C(=O)C[C@@]4(C)O)/C(C=O)=C\C[C@H]32)O1 [Ophiobolin A] |  | 14.2% | 13% |  | A (active (A) compounds having >25% inhibitory activity)
CC[C@H]1C[C@@H]2CC[C@@H](O2)[C@@H](C)C(=O)O[C@H](C)C[C@H]2CC[C@H](O2)[C@H](C)C(=O)O[C@@H](C)C[C@@H]2CC[C@@H](O2)[C@@H](C)C(=O)O[C@H](C)C[C@H]2CC[C@H](O2)[C@H](C)C(=O)O1 [Monactin] |  | 10% | 10.7% |  | I (otherwise these were reported as inactive (I))
O=C1Cc2ccccc2N1 [Oxindole] |  | 12.2% | 14.4% |  | I (otherwise these were reported as inactive (I))
C/C=C(\C)[C@H](O)[C@H](C)/C=C(C)/C=C/C/C(C)=C/Cc1nc(OC)c(OC)c(O)c1C [Piericidin A] |  | 11.3% | 4.17% |  | I (otherwise these were reported as inactive (I))
COc1cc(C(=O)O)c2c(c1C)OC(=O)c1c(C)cc(O)c(C=O)c1O2 [Psoromic acid] |  | 13.9% | 10.4% |  | I (otherwise these were reported as inactive (I))

SMILES | NFF_Activity [1, 3] | inhibition of growth at 1 µg/mL [2, 4] | inhibition of growth at 1 µg/mL [2, 5] | NFF_Activity [1] | NFF_Activity [1, 6]
CC(C)[C@@H]1NC(=O)[C@H](C)OC(=O)[C@@H](C(C)C)NC(=O)[C@@H](C(C)C)OC(=O)[C@H](C(C)C)NC(=O)[C@H](C)OC(=O)[C@@H](C(C)C)NC(=O)[C@@H](C(C)C)OC(=O)[C@H](C(C)C)NC(=O)[C@H](C)OC(=O)[C@@H](C(C)C)NC(=O)[C@@H](C(C)C)OC1=O [Valinomycin] | I (otherwise these were reported as inactive (I)) | 9.18% | 12.2% |  | 
CC1(C)C[C@]23[C@@H]4COC(=O)[C@H]2CC[C@H]1[C@@H]3CC4=O [Quadrone] |  | 11.6% | 11.6% |  | A (active (A) compounds having >25% inhibitory activity)
C=C(CC[C@]12O[C@H](C(=O)O)[C@@](O)(C(=O)O)[C@](C(=O)O)(O1)[C@H](OC(=O)/C=C/[C@@H](C)C[C@@H](C)CC)[C@H]2O)[C@@H](OC(C)=O)[C@H](C)Cc1ccccc1 [Zaragozic acid A] | I (otherwise these were reported as inactive (I)) | 9.75% | 7.01% |  | 
CC1(C)CCC[C@]2(C)[C@@H](C=O)C(C=O)=CC[C@@H]12 [Polygodial] |  | 13.1% | 13.9% |  | A (active (A) compounds having >25% inhibitory activity)
CC(C)=CCC[C@H](C)[C@H]1CC[C@]2(C)C[C@H]3[C@H](C(=O)C[C@@]3(C)O)/C(C=O)=C\C[C@@H]12 [Ophiobolin C] |  | 13.1% | 12.7% |  | A (active (A) compounds having >25% inhibitory activity)
CC[C@H]1CC2CN3CCc4c([nH]c5ccc(OC)cc45)[C@](C(=O)OC)(C2)[C@H]13 (stereo in doubt) [Voacangine] | I (otherwise these were reported as inactive (I)) | 9.91% | 13.7% |  | 
O=C(O)c1c(-c2ccc[nH]2)[nH]c2ccccc2c1=O [Penicinoline] |  | 13.9% | 11% |  | I (otherwise these were reported as inactive (I))
CC[C@@H]1C=CC=CC[C@H](C)[C@@H](O)[C@@H](C)C(=O)[C@H](C)[C@@H](O)[C@H](C)C(=O)[C@H](C)[C@@H](O)[C@H](C)C=CC(=O)O[C@H]2[C@@H](C)[C@@H](CC1)O[C@@]1(CC[C@@H](C)[C@@H](C[C@H](C)O)O1)[C@@H]2C [Oligomycin C] |  | 11.3% | 12.9% |  | I (otherwise these were reported as inactive (I))
C[C@@H]1Cc2c(Cl)cc(C(=O)N[C@@H](Cc3ccccc3)C(=O)O)c(O)c2C(=O)O1 [Ochratoxin A] |  | 13% | 11.6% |  | I (otherwise these were reported as inactive (I))
COC(=O)C1=C2Nc3ccccc3[C@@]23CCN2C[C@]4(C[C@@H]5C[C@]67CCC[C@H]6CCN6CC[C@@]8(c9cccc(OC)c9N(C4)[C@@]58O)[C@@H]67)[C@@H]4OCC[C@]4(C1)[C@H]23 [Vobtusine] | I (otherwise these were reported as inactive (I)) | 9.54% | 11.4% |  | 
C[C@H]1C(=O)O[C@@H]2CCN3CC=C(COC(=O)[C@](C)(O)[C@]1(C)O)[C@H]23 [Monocrotaline] |  | 8.98% | 13.2% |  | I (otherwise these were reported as inactive (I))
CC=C1CN(C)C2Cc3c([nH]c4ccccc34)C(c3cc4[nH]c5c(c4cc3OC)CCN3CC4CC(CC)C3C5(C(=O)OC)C4)CC1C2C(=O)OC (stereo not drawn) [Voacamine] | I (otherwise these were reported as inactive (I)) | 9.44% | 11.1% |  | 
O=c1[nH]c2ccccc2c(-c2ccccc2)c1O [Viridicatin] | I (otherwise these were reported as inactive (I)) | 10.7% | 15.1% |  | 
Cc1nnc2n1-c1sc(CCC(=O)N3CCOCC3)cc1C(c1ccccc1Cl)=NC2 [WEB 2086] | I (otherwise these were reported as inactive (I)) | 9.91% | 13.4% |  | 
CC(C)(O)[C@H]1O[C@H]2CC[C@@]3(C)[C@@](O)(CC[C@H]4Cc5c([nH]c6ccccc56)[C@@]43C)C2=CC1=O [Paxilline] |  | 10.1% | 13.3% |  | I (otherwise these were reported as inactive (I))
CCCCCCC(=O)CCCCCC/C=C/C[C@@H](O)[C@H](O)[C@@](N)(CO)C(=O)O [Myriocin] |  | 10.9% | 15.1% |  | I (otherwise these were reported as inactive (I))
